Measured values from patent publication US5079246A, “Novel indoloquinlones” (Beacham Group p. l. c., priority 1988, dated 1992).

Assays:
[1] = Geller-Seifter procedure (anxiolytic conflict test in rats); assay type: in vivo; conditions: Rattus norvegicus, po, 1 h, 60 min before testing, read-out: increase in responding in the `conflict` session (percentage increase in square root of total lever presses in FR5); for change in vivo at 20 mg/kg: 20 mg/kg p.o.
Method: Potential anxiolytic properties have been evaluated using the Geller-Seifter procedure based on that originally described by Geller and Seifter (1960) Psychopharmacologia, 1, 482-492.
Rats are trained on a variable interval 30 sec schedule (VI30) to press a lever in order to obtain food reward. The 3 min sessions of the VI30 schedule alternate with 3 min of a schedule (FR5) in which every 5th lever press is followed by a presentation of a food pellet paired with a 0.2 sec mild footshock. The amplitude of the shock is adjusted for each rat to give equivalent response rates. The total study consists of VI and FR components and lasts 30 mins. Rats typically respond with high rates of lever pressing under the VI30 schedule and low response rats under the FR5 `conflict` session. Anxiolytic drugs increase the suppressed response rates of rats in `conflict` sessions.
The compound is administered intraperitoneally or orally to groups of 6-16 rats 30 min (intraperitoneal route) or 60 min (oral route) before testing.
The results are expressed as the percentage increase in square root of the total number of lever presses in the FR5 `conflict` sessions. Square root transformation is necessary to normalise the data for statistical analysis using parametric methods. A change in the square root of the VI can indicate non-specific drug effects i.e. stimulation or sedation.

[2] = target: site on or near the Cl^- channel portion of the GABAA /BDZ/Cl^- channel complex; test: [^35 S]-TBPS binding to rat cerebral cortex membranes in vitro; conditions: 2 nM [^35 S]-TBPS, pH 7.1, 25° C.
Method: [^35 S]-TBPS binding to rat cerebral cortex membranes in vitro
[^35 S]-TBPS labels a site on or near the Cl^- channel portion of the GABAA /BDZ/Cl^- channel complex. Literature studies have shown that [^35 S]-TBPS binding is directly related to the permeability of the Cl^- channel (e.g. Concas et al, 1988).
Modulation of [^35 S]-TBPS binding is measured by a method similar to that of Gee et al (1986).
Pooled rat cerebral cortices were homogenised in 20 volumes of 0.32M sucrose and centrifuged at 1000 g for 20 minutes (4° C.). The supernatant was removed and recentrifuged at 50,000 g (4° C., 20 mins). The P2 pellet was then suspended in 20 volumes of Tris citrate buffer (pH 7.1) and centrifuged at 50,000 g (4° C., 20 mins). This washing step was repeated three times and the pellet finally resuspended in 20 volumes of buffer and stored at -70° C. prior to use.
[…] Non-specific binding was measured in the presence of 10^-4 M picrotoxin. Varying concentrations of test drugs 10^-7, 10^-6, 10^-5 and 10^-4 M final concentration)were added in a volume of 50 μl. The total assay volume was 500 μl. Incubation was stopped by rapid filtration using a Skatron cell harvester and radioactivity measured by liquid scintillation spectrometry. IC50 's were calculated as the concentration of test drug to inhibit 50% of specific binding. Concas A. et al, (1988) J. Neurochem. 51(6), 1868-1876. Gee K. W. et al, (1986) Mol. Pharmacol. 30, 218-225.

| SMILES | change in vivo at 20 mg/kg [1] | IC50 ([2]; done in the presence of GABA) | IC50 ([2]; done in the absence of GABA) | change in vivo at 100 mg/kg ([1]; 100 mg/kg p.o.) |
| --- | --- | --- | --- | --- |
| CC1CC(=O)c2c(nc3c(c2N)c2ccccc2n3C)C1 (racemic) [Example E10, (±) 11-Amino-3,6-dimethyl-1,2,3,4-tetrahydro-6H-quinindolin-1-one] | 17% |  |  |  |
| CC1CCc2nc3c(c(N)c2C1=O)c1ccccc1n3C (racemic) [Example E11, (±) 11-Amino-2,6-dimethyl-1,2,3,4-tetrahydro-6H-quinindolin-1-one] | 52% | 1200 nM |  |  |
| CCC1CCc2nc3c(c(N)c2C1=O)c1ccccc1n3C (racemic) [Example E12, (±) 11-Amino-2-ethyl-6-methyl-1,2,3,4-tetrahydro-6H-quinindolin-1-one] | 33% | 1400 nM |  |  |
| C#CCC1CCc2nc3c(c(N)c2C1=O)c1ccccc1n3C (racemic) [Example E14, (±) 11-Amino-6-methyl-2-(2-propynyl)-1,2,3,4-tetrahydro-6H-quinindolin-1-one] |  | 1000 nM |  |  |
| CC1CC(C)c2nc3c(c(N)c2C1=O)c1ccccc1n3C (racemic) [Example E15, (±) 11-Amino-1,2,3,4-tetrahydro-2,4,6-trimethyl-6H-quinindolin-1-one] |  | 3800 nM |  |  |
| Nc1c2c(nc3[nH]c4ccccc4c13)CCCC2=O [Example E1, 11-Amino-1,2,3,4-tetrahydro-6H-quinindolin-1-one] | 16% |  |  |  |
| Cn1c2ccccc2c2c(N)c3c(nc21)CCCC3=O [Example E4, 11-Amino-6-methyl-1,2,3,4-tetrahydro-6H-quinindolin-1-one] | 29% |  |  |  |
| CCn1c2ccccc2c2c(N)c3c(nc21)CCCC3=O [Example E5, 11-Amino-6-ethyl-1,2,3,4-tetrahydro-6H-quinindolin-1-one] | 29% |  | 7500 nM |  |
| CCCn1c2ccccc2c2c(N)c3c(nc21)CCCC3=O [Example E6, 11-Amino-6-n-propyl-1,2,3,4-tetrahydro-6H-quinindolin-1-one] | 17% |  | 3800 nM |  |
| C=CCn1c2ccccc2c2c(N)c3c(nc21)CCCC3=O [Example E7, 11-Amino-6-(2-propenyl)-1,2,3,4-tetrahydro-6H-quinindolin-1-one] | 16% | 1900 nM |  |  |
| Cn1c2ccccc2c2c(N)c3c(nc21)CC(C)(C)CC3=O [Example E8, 11-Amino-1,2,3,4-tetrahydro-3,3,6-trimethyl-6H-quinindolin-1-one] |  |  | 4400 nM |  |
| Cn1c2ccccc2c2c(N)c3c(nc21)CCC(C)(C)C3=O [Example E13, 11-Amino-1,2,3,4-tetrahydro-2,2,6-trimethyl-6H-quinindolin-1-one] | 21% | 1700 nM |  |  |
| Cn1c2ccccc2c2c(N)c3c(nc21)CCCCC3=O [Example E16, 12-Amino-7-methyl-cyclohepta[5,6]pyrido[2,3-b]indol-1-one] | 11% | 3300 nM |  |  |
| Cn1c2ccccc2c2c(N)c3c(nc21)CCC3=O [Example E17, 10-Amino-5-methyl-cyclopenta[5,6]pyrido[2,3-b]indol-1-one] |  |  |  | 37% |
